Experiments:
[1] = test system: proximal tubular epithelial cells (PTECs); experiment: Proliferation of PTECs cultured in glucose-rich medium (MTT); format: cell-based; details: for OD value: 72 h, 570 nm
Experimental: A 1000 mg/L stock solution of RA in DMEM medium was prepared, and filtered through 0.22 μm microfilter to remove bacteria. The stock was then aliquoted in appropriate containers and stored at −20° C. in darkness. It is good for use within 2 weeks. DMEM supplemented with 2% fetal bovine serum (FBS) was used to dilute the stock to desired concentrations before use.
Remove frozen vials storing PTECs from liquid nitrogen, thaw in water bath at 37° C. for 5 min, centrifuge at 1000 r·min^−1 for 5 min, and discard the supernatant. Blow up the cells with culture medium and transfer them into flasks for static culture. The medium was DMEM supplemented with 10 v % FBS, 1×10^5 U·L^−1 penicillin, 100 mg·L^−1 streptomycin. The cells are cultured at 37° C., 5% CO2, and saturated humidity for 2-3 days before 0.25% trypsin were used to digest the cells which were then passaged.
PTEC cells at logarithmic phase were seeded to 96-well plate at the density of 1×10^5/mL. The medium was replaced with serum-free DMEM 24 hours later and the cell culture was cultured statically for 24 hours. Discard the supernatant, dose the wells according to table 3: normal control group (NG, 5 mmol·L^−1), high glucose group (HG, 30 mmol·L^−1), NG+10 mg/L RA group, NG+50 mg/L of RA group, HG+10 mg/L of RA group, HG50 mg/L of RA group, with 6 wells in each group. Incubate for 72 hours respectively. Add 20 μL of MTT (5 mg·mL^−1) to each well 4 hours before the experiment is terminated. Remove supernatant 4 hours later, and 150 μL of DMSO was added to each well, shake for 10 min and use ELISA reader to determine OD value at 570 nm.

CTGF = experiment: Western blot of intracellular CTGF protein expression in PTECs; format: cell-based; details: for CTGF expression: 72 h, relative OD of band
Experimental: Western blot method was used to detect intracellular CTGF expression. PTEC cells at logarithmic phase were seeded to 96-well plate at the density of 1×10^5/mL. The medium was replaced with serum-free DMEM 24 hours later and the cell culture was cultured statically for 24 hours. Treat the wells as mentioned above. 72 hours later, cellular protein was extracted from the cell lysate according to modified Lowry method (Peterson G L. A simplification of the protein assay method of Lowry et al, which is more generally applicable. Anal Biochem, 1977, 83:346). 75 μg of total protein was loaded on each lane and all lanes were subject to 12% SDS-PAGE before the protein was transferred onto nitrocellulose membrane. Dye with Ponceau S (Sigma) to confirm transference and mark relative molecular weight standards. The membrane was then blocked in 5% solution of skimmed milk powder in TBST for 1 hour at room temperature. After washing, multiclonal goat-anti-rat anti-CTGF antibody (1:500, from Santa Cruz Co. Ltd.) was added and incubated overnight at 4° C. Then HRP-labeled anti-goat IgG secondary antibody (1:2 500, from Santa Cruz Co. Ltd.) was added and incubated at 37° C. for 1 hour. After rinsing, develop with 3,3-diaminobenzidine (DAB). Relative OD values of each band were analysed and the data are presented as χ±s. SPSS software was used in statistical analysis. ANOVA was applied for multi-group comparison.

Structure (SMILES): O=C(/C=C/c1ccc(O)c(O)c1)O[C@H](Cc1ccc(O)c(O)c1)C(=O)O [RA, R(+)2-{[3-(3,4-dihydroxylphenyl-(oxo-2-propenyl)oxy]3,4-dihydroxylphenylpropionic acid]}]
- OD value ([1]; HG (30 mmol/L glucose) + 10 mg/L RA): 1.289 ± 0.041
- OD value ([1]; HG (30 mmol/L glucose) + 50 mg/L RA): 1.317 ± 0.077
- OD value ([1]; NG (5 mmol/L glucose) + 10 mg/L RA): 1.168 ± 0.106
- OD value ([1]; NG (5 mmol/L glucose) + 50 mg/L RA): 1.052 ± 0.036
- PTECs proliferation induced by high level of glucose ([1]; certain concentrations of RA, P<0.05): can inhibit PTECs proliferation induced by high level of glucose
- intracellular CTGF expression compared with the HG group (CTGF; 10 mg/L and 50 mg/L RA): significantly down-regulated
- CTGF expression (CTGF; HG + 10 mg/L RA): 5244 ± 106
- CTGF expression (CTGF; HG + 50 mg/L RA): 5345 ± 95

From patent US20100130604A1, “USE OF ROSMARINIC ACID IN MANUFACTURE OF MEDICAMENTS FOR TREATING OR PREVENTING HEPATIC AND RENAL DISEASES” (SHANGDONG LUYE NATURAL DRUG RESEARCH AND DEVELOPMENT CO., …, priority 2006, published 2010)
